Source: patent US7282592B2, “Resorcinol derivatives” (Warner-Lambert Company, priority 2000, dated 2007)

Biological target: T1, human tyrosinase (Homo sapiens, UniProt P14679)
T1 construct: endogenous in cells; host or cells: SKMEL 188 human melanoma cell line (lysate)
T1 sequence (P14679 19-529): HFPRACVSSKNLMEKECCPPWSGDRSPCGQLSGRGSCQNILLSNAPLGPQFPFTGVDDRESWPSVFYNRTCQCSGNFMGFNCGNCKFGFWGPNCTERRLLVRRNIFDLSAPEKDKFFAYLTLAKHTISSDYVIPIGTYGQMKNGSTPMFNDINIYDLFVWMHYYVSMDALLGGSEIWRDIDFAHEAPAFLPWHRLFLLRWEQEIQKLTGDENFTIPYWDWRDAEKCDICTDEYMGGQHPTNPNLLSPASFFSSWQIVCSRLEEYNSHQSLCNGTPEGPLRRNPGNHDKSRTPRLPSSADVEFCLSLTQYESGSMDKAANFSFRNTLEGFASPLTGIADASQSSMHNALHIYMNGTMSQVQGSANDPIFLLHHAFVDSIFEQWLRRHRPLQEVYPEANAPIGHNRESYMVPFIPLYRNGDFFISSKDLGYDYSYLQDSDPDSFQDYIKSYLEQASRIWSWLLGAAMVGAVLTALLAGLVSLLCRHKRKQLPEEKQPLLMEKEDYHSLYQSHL
Assay: Tyrosinase (DOPA Oxidase) Assay Using Cell Lysate
Format: biochemical
Conditions: SKMEL 188 human melanoma cell lysates, L-DOPA 100 μg/ml, incubated 8 hrs, read at 405 nm
Procedure: 1. Tyrosinase (DOPA Oxidase) Assay Using Cell Lysate
Human melanoma cell line, SKMEL 188 (licensed from Memorial Sloan-Kettering), is used in the cell lysate assay and the screen. In the assay, compounds and L-dihydroxyphenylalanine (L-DOPA) (100 μg/ml) are incubated with the cell lysates containing human tyrosinase for 8 hrs before the plates are read at 405 nm.

IC50: ~4 µM
Compound: Cc1ccc(S(=O)(=O)N[C@H]2CC[C@H](c3ccc(O)cc3O)CC2)cc1 [Example 14, N-[trans-4-(2,4-Dihydroxyphenyl)cyclohexyl]-4-methylbenzenesulfonamide]
